Reference: US20250115571A1, “OXOPIPERAZINE DERIVATIVES” (Inthera Bioscience AG, priority 2017, published 2025)

Columns and labels:
CaSki cells = experiment: Colony Formation Assay (CFA), 14 days; assay type: cell-based; conditions: Homo sapiens, Ca-Ski, 336 h; for inhibition at 0.7 µM: colony formation assay, class by % inhibition at 0.7, 6 or 50 μM
From the text: Cell culture: CaSki cells were obtained from CLS GmbH, Eppelheim, Germany (cat. 300145) and subcultured in ready-to-use RPMI1640 Media (CLS GmbH cat. 820700) after addition of “Antibiotic Antimycotic Solution” (Sigma-Aldrich, St Louis, USA, cat. A5955) at 1:100 dilution. CaSki cells were expanded and aliquots kept frozen in liquid nitrogen according to manufacturer's instructions. Once thawed, aliquots were passaged every second or third day at a seed density of 20′000 cells/cm^2; and used for a maximum of twenty passages.
Preparation of the cells for CFA: Cell culture flasks were rinsed twice with Ca++/Mg++-free Phosphate-Buffered Saline (DPBS, CLS GmbH cat. 860015) and incubated with Accutase (CLS GmbH cat. 830100) for 15 min at 37° C. Cells were resuspended in a four-fold volume of ready-to use RPMI, centrifuged at 300 g for 10 minutes, the supernatant discarded and the cells resuspended in ready-to-use RPMI1640 by pipetting up and down ten times with a serological pipette. Cell density was determined with a Via-1 Cassette (Chemometec, Allerod, Denmark) on a Nucleocounter NC 3000 (Chemometec). The required amount of cells was first diluted 1:10 in ready-to-use RPMI; cells pipetted five times up-down with a serological pipette; and the 1:10 solution added to the final volume needed for the whole assay setup. Cells were mixed again by pipetting up and down twenty times with a serological pipette. The final cell density was 70 cells/ml.
Seeding: Cells were seeded column-wise in 6-well plates, while triplicates were treated row-wise. Three ml cell suspension solution (210 cells) were added per well.
Treatment: Compound stock solutions were prepared at a concentration of 30 mM in 50% DMSO/50% water; and diluted in the same solution so that the volume added to the wells was of 5 μl and the final DMSO well concentration 0.08%. Untreated cells (negative controls) were incubated in a) medium only; and b) 0.08% DMSO. […] Tests showing less than 75% or more than 95% inhibition were repeated. The plates were swirled gently after addition of the compounds and the cells incubated for 14 days at 37° C. Culture incubation solutions were replaced after one week.
Staining: Colonies were washed twice with ice-cold DPBS and fixed on ice with 1 ml ice-cold 10% methanol solution for 30 min. The methanol solution was removed and colonies incubated with 0.1% Crystal Violet/DBPS for 20 min at room temperature. The wells were rinsed with water at room temperature, let dry and colonies were counted. Compounds e.g., compounds of Table 2 and 3 were classified as follows: […]

PC3 = experiment: 9-day colony survival assay (CFA); assay type: cell-based; conditions: Homo sapiens, PC-3, 216 h, PC3 (prostate), read-out: GI50 (50% growth inhibition)
A549 = experiment: 9-day colony survival assay (CFA); assay type: cell-based; conditions: Homo sapiens, 216 h, A549 (lung), read-out: GI50 (50% growth inhibition)
CaSki = experiment: 9-day colony survival assay (CFA); assay type: cell-based; conditions: Homo sapiens, Ca-Ski, 216 h, CaSki (cervix), read-out: GI50 (50% growth inhibition)
From the text: Cell culture. CaSki cells (cervical cancer) were obtained from CLS GmbH, Eppelheim, Germany (cat #300145) and subcultured in ready-to-use RPMI1640 Media (CLS #820700) after addition of “Antibiotic Antimycotic Solution” (Sigma-Aldrich, St Louis, USA) at 1:100 dilution. The cells were expanded, and aliquots kept frozen in liquid nitrogen according to manufacturer's instructions; tested for mycoplasma contamination and genotyped (Microsynth AG, Balgach, Switzerland). Once thawed, aliquots were passaged every second or third day at a seed density of 20′000 cells/cm^2; and used for a maximum of twenty passages. For passaging, cell culture flasks were rinsed twice with Ca++/Mg++-free Phosphate-Buffered Saline (DPBS, CLS #860015) and incubated with Accutase (CLS #830100) for 15 min at 37° C. Cells were resuspended in a four-fold volume of ready-to-use RPMI, centrifuged at 300 g for ten minutes, the supernatant discarded and the cells resuspended in ready-to-use RPMI1640 by pipetting up and down five times with a serological pipette. Cell density was determined with a Via-1 Cassette (Chemometec, Allerod, Denmark) on a Nucleocounter NC 3000 (Chemometec). Where not stated, consumables and chemicals were purchased from well-known suppliers.
Preparation of the cells for CFA. Cell culture flasks were rinsed twice with DPBS and incubated with Accutase for 15 min at 37° C. Cells were resuspended in a four-fold volume of ready-to use RPMI, centrifuged at 300 g for ten minutes, the supernatant discarded and the cells resuspended in ready-to-use RPMI1640 by pipetting up and down ten times with a serological pipette. Cell density was determined with a Via-1 Cassette on a Nucleocounter NC 3000. The required amount of cells was first diluted 1:10 in ready-to-use RPMI; cells pipetted five times up-down with a serological pipette; and the 1:10 solution added to the final volume needed for the whole assay setup. Cells were mixed again by pipetting up and down twenty times with a serological pipette. The cell density used for the experiment was of 140 cells/ml.
Seeding. Cells were seeded row-wise in 12-well plates, while triplicates were treated column-wise (i.e. all the first rows were seeded first, then the second rows, and finally the third rows). One and a half ml cell suspension solution (a total of 210 cells) were added per well.
Treatment. Compound stock solutions were prepared at a concentration of 30 mM in 50% DMSO/50% water; and diluted in the same solution so that the volume added to the wells was of 2.5 μl and the final DMSO well concentration of 0.08%. Untreated cells (negative controls) were incubated in a) medium only; and b) 0.08% DMSO. […] The plates were swirled gently after addition of the compounds and the cells incubated for nine days at 37° C. Culture incubation solutions were replaced after five days.
Staining. Colonies were washed twice with ice-cold DPBS and fixed on ice with 1 ml ice-cold 10% methanol solution for 30 min. The methanol solution was removed and colonies incubated with 0.1% Crystal Violet/DBPS for 20 min at room temperature. The wells were rinsed consecutively with 1.5, 1, and 0.5 ml water at room temperature and let dry.
Destaining and data evaluation. […] Absorbance was measured at 600 nm with a SpectraMax M2e reader (Molecular Devices, Sunnyvale, CA, USA). Percentage of colony formation was calculated from the average of the well triplicates compared to the untreated DMSO controls after subtraction of blank values. […]

HCT116 = experiment: 9-day colony survival assay (CFA); assay type: cell-based; conditions: Homo sapiens, HCT-116, 216 h, HCT116 (colon), read-out: GI50 (50% growth inhibition)
[1] = tested on: HPV-positive head-and-neck squamous cell carcinoma model #HN11303; experiment: Patient-derived xenograft mouse model for head-and-neck squamous cell carcinoma (HN11303); assay type: in vivo; conditions: subcutaneous HPV-positive HNSCC model, female NMRI nu/nu mice
Protocol: Female NMRI nu/nu mice were injected with cells derived from a human head-and-neck cancer (model #HN11303, an HPV-positive head-and-neck squamous cell carcinoma, EPO-GmbH, Berlin, Germany). The cells were inoculated subcutaneously into the left flank of 40 mice. Thirteen days later tumors reached a mean volume of approximately 107 mm^3, and mice were randomly assigned to five treatment groups of each eight mice (TABLE 23). Body weights were measured twice weekly. Tumor burden was assessed by caliper measurement twice weekly. Dosing breaks were applied when tolerability issues arose (body weight loss>10). The study was terminated five weeks post first dosing. The experiment was performed in the EPO animal testing facility (Experimental Pharmacology and Oncology GmbH, 13125 Berlin-Buch, Germany).

SMILES: CC(C)C[C@@H]1NCCN([C@@H](CC(C)C)C(=O)N2CCC3(C[C@@H]2C)O[C@H]2C[C@@H](N(C)C)C[C@H]2O3)C1=O (stereo partly drawn) [Compound 292, (S)-1-[(S)-1-({(1R,5S,2′S)-7-(Dimethylamino)-2′-methylspiro[2.4-di-oxabicyclo[3.3.0]oc-tane-3,4′-piperidin]-1′-yl}carbonyl)-3-methylbutyl]-3-isobutyl-2-piperazinone]
- inhibition at 0.7 µM (CaSki cells): < 0%

SMILES: CC(C)C[C@H]1C(=O)N([C@@H](CC(C)C)C(=O)N2CCC3(C[C@@H]2C)OCC(CN2CCCC2)CO3)CCN1C (stereo partly drawn) [Compound 287, (3S)-4-methyl-1-[(2S)-4-methyl-1-oxo-1-[(3s,6s,8S)-8-methyl-3-(pyrrolidin-1-ylmethyl)-1,5-dioxa-9-azaspiro[5.5]undec-an-9-yl]pentan-2-yl]-3-(2-methylpropyl)piper-azin-2-one (^≠), isomer Z]
- GI50 (PC3): 0.007 µM
- GI50 (A549): 0.02 µM
- GI50 (CaSki): 0.013 µM
- GI50 (HCT116): 0.0015 µM

SMILES: CC(C)C[C@@H]1NCCN([C@@H](CC(C)C)C(=O)N2CCC3(C[C@@H]2C)OCC(c2nccn2C)CO3)C1=O (stereo partly drawn) [Compound 260, (S)-1-[(S)-1-({(S)-8-Methyl-3-(1-methyl-1H-imidazol-2-yl)-1,5-dioxa-9-aza-9-spiro[5.5]un-decyl}carbonyl)-3-methylbutyl]-3-isobutyl-2-piperazinone]
- inhibition at 0.7 µM (CaSki cells): < 0%

SMILES: CC(C)(C)C[C@@H](C(=O)N1CCC(CC(N)=O)CC1)N1CCN[C@@H](CC2CC2)C1=O [Compound 94, (1-{(S)-2-[(S)-3-(Cyclopropylmethyl)-2-oxo-1-piperazinyl]-4,4-dimethylvaleryl}-4-piperidyl)acetamide]
- inhibition at 0.7 µM (CaSki cells): < 0%

SMILES: CC(C)C[C@@H]1NCCN([C@@H](CC(C)C)C(=O)N2CCC3(C[C@@H]2C)OC2CN(C)C[C@@H]2O3)C1=O (stereo partly drawn) [Compound 300, (S)-1-[(S)-1-({(2′S)-7-Methyl-2′-methylspiro[2.4-dioxa-7-azabicyclo[3.3.0]oc-tane-3,4′-piperidin]-1′-yl}carbonyl)-3-methylbutyl]-3-isobutyl-2-piperazinone]
- inhibition at 0.7 µM (CaSki cells): < 0%

SMILES: CCCC[C@@H]1NCCN([C@@H](CC2CC2)C(=O)N2CCC(CC(N)=O)CC2)C1=O [Compound 106, (1-{(S)-2-[(S)-3-Butyl-2-oxo-1-piperazinyl]-3-cyclopropylpro-pionyl}-4-piperidyl)acetamide]
- inhibition at 0.7 µM (CaSki cells): < 0%

SMILES: CC(C)C[C@@H]1NCCN([C@@H](CC(C)C)C(=O)N2CCC3(C[C@@H]2C)O[C@H]2CN(C)CC[C@H]2O3)C1=O (stereo partly shown) [Compound 296]
- inhibition at 0.7 µM (CaSki cells): < 0%

SMILES: CC(C)C[C@@H]1NCCN([C@H](C(=O)N2CCC(CC(N)=O)CC2)C(C)C)C1=O [Compound 90, (1-{(S)-2-[(S)-3-Isobutyl-2-oxo-1-piperazinyl]-3-methylbutyryl}-4-piperidyl)acetamide]
- inhibition at 0.7 µM (CaSki cells): < 0%

SMILES: CC(C)C[C@@H]1NCCN([C@@H](CC(C)C)C(=O)N2CCC3(C[C@@H]2C)OCC(c2ccccn2)CO3)C1=O (stereo partly drawn) [Compound 285, (S)-1-[(S)-1-({(S)-8-Methyl-3-(2-pyridyl)-1,5-dioxa-9-aza-9-spiro[5.5]un-decyl}carbonyl)-3-methylbutyl]-3-isobutyl-2-piperazinone]
- inhibition at 0.7 µM (CaSki cells): < 0%

SMILES: CC(C)C[C@@H]1NCCN([C@@H](CC(C)C)C(=O)N2CCC(Cc3ncc[nH]3)CC2)C1=O [Compound 57, (S)-1-[(S)-1-({4-[(1H-Imidazol-2-yl)methyl]-1-piperidyl}carbonyl)-3-methylbutyl]-3-isobutyl-2-piperazinone]
- inhibition at 10 µM (CaSki cells; 10 μM, reference compound standard treatment, 14 days): 80 to 90%
- mean TV ([1]; day 13): 0.1073 cm^3
- mean TV ([1]; day 15): 0.1106 cm^3
- mean TV ([1]; day 18): 0.1166 cm^3
- mean TV ([1]; day 21): 0.1081 cm^3
- mean TV ([1]; day 25): 0.1233 cm^3
- mean TV ([1]; day 29): 0.1421 cm^3
- mean TV ([1]; day 33): 0.2009 cm^3
- mean TV ([1]; day 36): 0.1776 cm^3

SMILES: CC(C)C[C@@H](C(=O)N1CCC(CC(N)=O)CC1)N1CCN[C@@H](CC(C)(C)C)C1=O [Compound 114, (1-{(S)-2-[(S)-3-Neopentyl-2-oxo-1-piperazinyl]-4-methylvaleryl}-4-piperidyl)acetamide]
- inhibition at 0.7 µM (CaSki cells): < 0%
